Our source for the IC50 values is patent US9913843B2, “Protein kinase C inhibitors and uses thereof” (Rigel Pharmaceuticals, Inc., priority 2012, dated 2018).

By IC50 is commonly meant the concentration at which inhibition is half-maximal.

The assay concerns PKC mediated IL-2 production in human primary T cells. The assay can be described thus: IL-2 ELISA, human primary T cell, anti CD3+CD28+ (whole cell functional assay for PKC mediated IL-2 production). In kind it is cell-based. In outline: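 Primary human T cells (PBMC-derived, expanded on plate-bound anti-CD3/CD28 with IL-2, then IL-2-washed) were pre-incubated 1 h at 37 °C with compound, then stimulated on 1 μg/ml anti-CD3 plus 5 μg/ml anti-CD28. After 24 h at 37 °C, secreted IL-2 was measured by ELISA; counter assay used 0.5 ng/ml PMA plus 0.1 μM ionomycin (final).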
(In general: In an ELISA, binding on a coated surface is turned into a signal by an enzyme label.)

Where [1] appears, read: 24 h, human primary T cells stimulated with anti-CD3 + anti-CD28, IL-2 by ELISA, read-out: IC50 for blocking IL-2 production.
Where [2] appears, read: human primary T cells stimulated with anti-CD3 + anti-CD28, 24 h, IL-2 by ELISA, 8 pt, read-out: IL2 ELISA, Human primary T cell, anti-CD3 + CD28, 8 pt (IC50).

Where two headings read alike, the source gives them in different places. Some results are limits rather than exact numbers.

On to `Fc1cc(C2CC2)c(-n2cnnn2)cc1Nc1ncc(C(F)(F)F)c(NC[C@@H]2CCCN3CCCC[C@H]23)n1` [Compound 100, N2-(4-cyclopropyl-2-fluoro-5-(1H-tetrazol-1-yl)phenyl)-5-(trifluoromethyl)-N4-(((1S,9aR)-octahydro-1H-quinolizin-1-yl)methyl)pyrimidine-2,4-diamine], for which the IC50 is, setting by setting: under setting [1], < 30000 nM; under setting [2], 4210 nM.
The corresponding values for `COc1ccc(Nc2ncc(OC)c(NC[C@@H]3CCCN4CCCC[C@H]34)n2)cc1-n1nnnc1C` [Compound 77, N4-(((1S,9aR)-octahydro-1H-quinolizin-1-yl)methyl)-5-methoxy-N2-(4-methoxy-3-(5-methyl-1H-tetrazol-1-yl)phenyl)pyrimidine-2,4-diamine] are < 30000 nM and 2420 nM.
The corresponding values for `CN(C)c1cnc(Nc2ccc3oc(=O)[nH]c3c2)nc1NC[C@@H]1CCCN2CCCC[C@H]12` [Compound 97, 5-(4-(((1S,9aR)-octahydro-1H-quinolizin-1-yl)methylamino)-5-(dimethylamino)pyrimidin-2-ylamino)benzo[d]oxazol-2(3H)-one] are < 30000 nM and 5410 nM.
The corresponding values for `Cc1cnc(Nc2cc(C#N)c(C3CC3)cc2F)nc1NC[C@@H]1CCCN2CCCC[C@H]12` [Compound 69, 5-(4-(((1S,9aR)-octahydro-1H-quinolizin-1-yl)methylamino)-5-methylpyrimidin-2-ylamino)-2-cyclopropyl-4-fluorobenzonitrile] are < 30000 nM and 265 nM.
Regarding `COc1ccc(Nc2ncc(C(N)=O)c(NC[C@@H]3CCCN4CCCC[C@H]34)n2)cc1-n1nnnc1C` [Compound 125, 4-(((1S,9aR)-octahydro-1H-quinolizin-1-yl)methylamino)-2-(4-methoxy-3-(5-methyl-1H-tetrazol-1-yl)phenylamino)pyrimidine-5-carboxamide], the IC50 under setting [1] was < 30000 nM and the IC50 under setting [2] was 1780 nM.
In the same order, the values of `COc1cc(Nc2ncc(N(C)C)c(NC[C@@H]3CCCN4CCCC[C@H]34)n2)cc(OC)c1` [Compound 96, N4-(((1S,9aR)-octahydro-1H-quinolizin-1-yl)methyl)-N2-(3,5-dimethoxyphenyl)-N5,N5-dimethylpyrimidine-2,4,5-triamine] are < 30000 nM and 4980 nM.
The corresponding values for `CN(C)c1cnc(Nc2cc(-n3nnn(C)c3=O)c(C3CC3)cc2F)nc1NC[C@@H]1CCCN2CCCC[C@H]12` [Compound 87] are < 30000 nM and 8260 nM.
As for `O=C1COc2cc(Nc3ncc(F)c(NC[C@@H]4CCCN5CCCC[C@H]45)n3)ccc2N1CC1CC1` [Compound 26, 7-(4-(((1S,9aR)-octahydro-1H-quinolizin-1-yl)methylamino)-5-fluoropyrimidin-2-ylamino)-4-(cyclopropylmethyl)-2H-benzo[b][1,4]oxazin-3(4H)-one], the IC50 is, setting by setting: under setting [1], < 30000 nM; under setting [2], 169 nM.
In the same order, the values of `COc1cnc(Nc2cc(C#N)c(C3CC3)cc2F)nc1NC[C@@H]1CCCN2CCCC[C@H]12` [Compound 82, 5-(4-(((1S,9aR)-octahydro-1H-quinolizin-1-yl)methylamino)-5-methoxypyrimidin-2-ylamino)-2-cyclopropyl-4-fluorobenzonitrile] are < 30000 nM and 1310 nM.
The corresponding values for `N#Cc1cc(Nc2ncc(Cl)c(NC[C@@H]3CCCN4CCCC[C@H]34)n2)c(F)cc1C1CC1` [Compound 42, 5-(4-(((1S,9aR)-octahydro-1H-quinolizin-1-yl)methylamino)-5-chloropyrimidin-2-ylamino)-2-cyclopropyl-4-fluorobenzonitrile] are < 30000 nM and 348 nM.
In the same order, the values of `CN(C)c1cnc(Nc2ccc(C3CC3)c(C#N)c2)nc1NC[C@@H]1CCCN2CCCC[C@H]12` [Compound 94, 5-(4-(((1S,9aR)-octahydro-1H-quinolizin-1-yl)methylamino)-5-(dimethylamino)pyrimidin-2-ylamino)-2-cyclopropylbenzonitrile] are < 30000 nM and 2570 nM.
`Cn1nnn(-c2cc(Nc3ncc(C#N)c(NC[C@@H]4CCCN5CCCC[C@H]45)n3)c(F)cc2OCC2(C)COC2)c1=O` [Compound 130, 2-((2-fluoro-5-(4-methyl-5-oxo-4,5-dihydro-1H-tetrazol-1-yl)-4-((3-methyloxetan-3-yl)methoxy)phenyl)amino)-4-((((1S,9aR)-octahydro-2H-quinolizin-1-yl)methyl)amino)pyrimidine-5-carbonitrile]: the IC50 is < 30000 nM under setting [1] and 444 nM under setting [2].
As to `Cc1cnc(Nc2ccc(C3CC3)c(C#N)c2)nc1NC[C@@H]1CCCN2CCCC[C@H]12` [Compound 68, 5-(4-(((1S,9aR)-octahydro-1H-quinolizin-1-yl)methylamino)-5-methylpyrimidin-2-ylamino)-2-cyclopropylbenzonitrile], the IC50 by setting is: under setting [1], < 30000 nM; under setting [2], 950 nM.
The corresponding values for `C[C@H](O)COc1cc(F)c(Nc2ncc(Cl)c(NC[C@@H]3CCCN4CCCC[C@H]34)n2)cc1-n1nnn(C)c1=O` [Compound 152, 1-(5-((5-chloro-4-((((1S,9aR)-octahydro-2H-quinolizin-1-yl)methyl)amino)pyrimidin-2-yl)amino)-4-fluoro-2-((S)-2-hydroxypropoxy)phenyl)-4-methyl-1,4-dihydro-5H-tetrazol-5-one] are < 30000 nM and 89.8 nM.
The corresponding values for `CC(O)COc1cc(F)c(Nc2ncc(C#N)c(NC[C@@H]3CCCN4CCCC[C@H]34)n2)cc1-n1nnn(C)c1=O` (stereo partly drawn) [Compound 136, 2-((2-fluoro-4-(2-hydroxypropoxy)-5-(4-methyl-5-oxo-4,5-dihydro-1H-tetrazol-1-yl)phenyl)amino)-4-((((1S,9aR)-octahydro-2H-quinolizin-1-yl)methyl)amino)pyrimidine-5-carbonitrile] are < 30000 nM and 176 nM.
In the same order, the values of `CC(C)N1C(=O)C(C)(C)Oc2cc(Nc3ncc(F)c(NC[C@@H]4CCCN5CCCC[C@H]45)n3)ccc21` [Compound 16, 7-(4-(((1S,9aR)-octahydro-1H-quinolizin-1-yl)methylamino)-5-fluoropyrimidin-2-ylamino)-4-isopropyl-2,2-dimethyl-2H-benzo[b][1,4]oxazin-3(4H)-one] are < 30000 nM and 702 nM.
Regarding `Cn1nnn(-c2cc(Nc3ncc(C#N)c(NC[C@@H]4CCCN5CCCC[C@H]45)n3)c(F)cc2OCC(O)(C(F)(F)F)C(F)(F)F)c1=O` [Compound 134, 2-((2-fluoro-5-(4-methyl-5-oxo-4,5-dihydro-1H-tetrazol-1-yl)-4-(3,3,3-trifluoro-2-hydroxy-2-(trifluoromethyl)propoxy)phenyl)amino)-4-((((1S,9aR)-octahydro-2H-quinolizin-1-yl)methyl)amino)pyrimidine-5-carbonitrile], the 50% inhibitory concentration (IC50) runs as follows: under setting [1], < 30000 nM; under setting [2], 908 nM.
The corresponding values for `Cc1ccc(Nc2ncc(Cl)c(NC[C@@H]3CCCN4CCCC[C@H]34)n2)cc1-n1cnnn1` [Compound 33, 5-chloro-N4-(((1S,9aR)-octahydro-1H-quinolizin-1-yl)methyl)-N2-(4-methyl-3-(1H-tetrazol-1-yl)phenyl)pyrimidine-2,4-diamine] are < 30000 nM and 117 nM.
